Experimental data as given in patent publication US20160287624A1, “Water-Soluble Vitamins to Increase Oral Absorption and Bioavailability” (NESTEC S.A., priority 2013, published 2016).

Tests used:
[1] = Absorption assessment in Caco-2 cell monolayer (A->B permeability); details: human, Caco-2, Mean A->B Papp, assay duration 2 hr; controls 10 μM, formulations analyte test conc. 20 μg/mL
Description: (§1) A Caco-2 cellular model was used to study the effect of the stevia solubilizer on the intestinal absorption of vitamin B12. The Caco-2 cell monolayer model is the pharmaceutical industry standard for predicting human oral absorption. The test samples included:

[2] = rat, in vivo, po
Experimental: Rats (n=6 per group) were orally administered at a dose equivalent to 2 mg/70 kg person in a free form (unformulated control F4) or a formulation of Formula 1 (API:Stevia at 1:25 w/w), Formula 2 (API:Stevia at 1:50 w/w), or Formula 3 (API:Stevia at 1:125 w/w).
To answer the question whether the solubilizer enhanced the absorption of vitamin B12, the four formulations were assessed in a Sprague Dawley rat model at the vitamin B12 dose equivalent to 1 mg/70 kg person. Each group (formulation) had 6 rats (n=6). Each rat was orally gavaged and blood collected at 11 time points during a 12-hour period. The plasma samples were stored in a freezer prior to vitamin B12 analyses. Relative bioavailability was calculated by comparing the area under the time-concentration curves of formulated over the unformulated control.
Vitamin B12 in rat plasma over time after oral gavage with baseline normalized for all treatments were analyzed by a radioimmunoassay method. The vitamin B12 in rat plasma over a 12-hr period at 15, 30, 45, 60, 90 min, and 2, 2.5, 4, 6, 8, and 12 h after oral gavage at a dose equivalent to 2 mg/70 kg person in a free form (unformulated control) or a formulated form of Formula 1 (vitamin B12:stevia at 1:25 w/w), Formula 2 (vitamin B12:stevia at 1:50 w/w), or Formula 3 (vitamin B12:stevia at 1:125 w/w) were analyzed.

[3] = Stability of vitamin B12 in simulated gastric fluid (HPLC-UV); assay type: physicochemical; details: 37° C.
Experimental: The pH of simulated gastric fluid was measured. […] The solutions were incubated at 37° C. in the water bath of a shaker operated at 50 rpm. After 2 hrs. of incubation, 1 mL solution was taken for HPLC analysis.
The pure vitamin B12 (F4) was also reconstituted in gastric fluid as an unformulated control. Both sample solutions were made to contain 20 μg/ml vitamin B12, wrapped with aluminum foil to avoid exposure to light, and incubated at 37° C. for two hours. The solutions were then stored in a freezer for 22 hrs. The frozen samples were thawed to room temp before HPLC-UV analysis.

Caco-2 cell monolayer = experiment: Absorption assessment in Caco-2 cell monolayer (A->B permeability)
Description: as §1

Compound | Papp A→B at 2 h, 10 μM [1] [×10⁻⁶ cm/s] | Time during which vitamin B12 in plasma was detected [2] [min] | Tmax (the time at which Cmax is reached) [2] [h] | Stability of vitamin B12 in gastric fluid ([3]; over a two hour period, 20 μg/ml) | R.E. (relative error) 2 hr ([3]; simulated gastric fluid, 2 hr) [%] | Determined Concentration 2 hr ([3]; simulated gastric fluid, 2 hr, 0 hr 20.2 μg/mL) [µg/mL] | Permeability across Caco-2 cell monolayer (Caco-2 cell monolayer) | Mean A->B Papp (Caco-2 cell monolayer; assay duration 2 hr, controls 10 μM, formulations analyte test conc. 20 μg/mL)
CNC(=C[N+](=O)[O-])NCCSCc1ccc(CN(C)C)o1 [Ranitidine] | 0.3 | – | – | – | – | – | – | –
C/C1=C2/[N-][C@H]([C@H](CC(N)=O)[C@@]2(C)CCC(=O)NC[C@@H](C)OP(=O)([O-])O[C@H]2[C@@H](O)[C@@H](n3cnc4cc(C)c(C)cc43)O[C@@H]2CO)[C@]2(C)N=C(/C(C)=C3N=C(/C=C4N=C1[C@@H](CCC(N)=O)C\4(C)C)[C@@H](CCC(N)=O)[C@]\3(C)CC(N)=O)[C@@H](CCC(N)=O)[C@]2(C)CC(N)=O.[CH3-].[Co+3] [Formula F4, methylcobalamin] | – | 480 | 1.5 | stable | 3.7 | 21.0 | not permeable | <LLOQ^c
